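Values below derive from 48-hour exposures of cells grown in 96-well plates, with endpoints linearly interpolated between the two concentrations bracketing the appropriate inhibition level. Abbreviation: GI50, concentration required for 50% inhibition of growth. TGI: concentration producing complete growth inhibition.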
How the values were obtained:
Test in all cases: inhibition of tumour cell growth, NCI panel, 48 h
[1] = tested on: K-562 leukemia
[2] = tested on: CAKI-1 renal
[3] = tested on: SW-620 colon
[4] = tested on: SK-MEL-5 melanoma
[5] = tested on: NCI-H522 lung
[6] = tested on: MDA-MB-231 breast
[7] = tested on: UACC-257 melanoma
[8] = tested on: ACHN renal
[9] = tested on: HS 578T breast
[10] = tested on: MALME-3M melanoma

Compound	GI50 [1] [µM]	TGI [1] [µM]	GI50 [2] [µM]	TGI [2] [µM]	GI50 [3] [µM]	TGI [3] [µM]	GI50 [4] [nM]	TGI [4] [µM]	GI50 [5] [µM]	TGI [5] [µM]	GI50 [6] [nM]	TGI [6] [µM]	GI50 [7] [µM]	TGI [7] [µM]	GI50 [8] [µM]	TGI [8] [µM]	GI50 [9] [nM]	TGI [9] [µM]	GI50 [10] [nM]	TGI [10] [µM]
O=c1[nH]c(O)c(C=Nc2ccc(-c3nc4ccccc4o3)cc2)c(=O)[nH]1	35	> 100	33.1	> 100	40.6	> 100	44800	> 100	30.9	> 100	29200	> 100	58.4	> 100	> 100	> 100	> 100000	> 100	–	–
C=C(C)[C@@H]1CC[C@]2(CN)CC[C@]3(C)[C@H](CC[C@@H]4[C@@]5(C)CCCNC(C)(C)[C@@H]5CC[C@]43C)[C@@H]12	–	–	1.66	3.02	1.53	3.05	1560	3	–	–	1790	3.52	2.09	4.35	1.77	3.19	1800	4	1750	3.63
C/C(=N\NC(N)=O)c1sc(-c2nc(C)c(/C(C)=N/NC(N)=O)s2)nc1C	–	> 100	–	> 100	–	–	–	> 100	–	> 100	–	–	–	> 100	–	> 100	–	–	–	> 100
O=C1C=C(Nc2ccc(Cl)cc2C(=O)c2ccccc2)c2ccccc2C1=O	–	> 100	–	> 100	–	> 100	–	> 100	–	> 100	–	–	–	> 100	–	> 100	–	–	–	> 100
COc1cc(C[P+](c2ccccc2)(c2ccccc2)c2ccccc2)cc(OC)c1OC	–	> 100	–	> 100	–	> 100	–	> 100	–	> 100	–	–	–	> 100	–	> 100	–	–	–	> 100
COc1ccc(NC(=O)CSc2nnc(-c3ccc(NC(C)=O)cc3)o2)cc1	–	> 100	–	–	–	–	–	27.7	–	33.9	–	–	–	41.7	–	31.1	–	–	–	40.8
O=C(CNc1ccc(Cl)cc1Cl)Nn1c(-c2ccccc2)nc2ccccc2c1=O	–	36.5	–	–	–	34.4	–	18.5	–	25.7	–	36.7	–	48.6	–	37.3	–	71.8	–	34.6
CNc1nc(N)nc(Nc2ccc(I)cc2)c1N=O	–	> 100	–	–	–	> 100	–	> 100	–	> 100	–	> 100	–	> 100	–	> 100	–	> 100	–	> 100
O/N=C1\CCCCC1C(NO)c1ccccc1 (stereo not drawn)	–	> 100	–	–	–	> 100	–	–	–	> 100	–	–	–	> 100	–	> 100	–	–	–	> 100
O=C(c1ccc([N+](=O)[O-])cc1[N+](=O)[O-])N(/N=C/C=C/c1ccccc1)c1nnc(-c2ccccc2)c(-c2ccccc2)n1	–	57.3	–	79.6	–	> 100	–	> 100	–	96.6	–	–	–	> 100	–	78.1	–	–	–	> 100
O=[N+]([O-])c1cccnc1N=Nc1c(O)[nH]c2ccccc12	–	> 100	–	–	–	87.8	–	–	–	69.3	–	> 100	–	44.6	–	36	–	> 100	–	56.3
NC(N)=Nc1nc2ccccc2o1	> 100	> 100	> 100	> 100	> 100	> 100	> 100000	> 100	–	–	> 100000	> 100	21.2	> 100	> 100	> 100	–	–	> 100000	> 100
CCCCCCCC(=O)OCC1OC(n2cc(F)c(=O)[nH]c2=O)C(N)C(OC(=O)CCCCCCC)C1O (stereo not drawn)	–	–	–	41.5	–	33.6	–	22.3	–	28.9	–	–	–	33.4	–	37.9	–	–	–	36.9
CC(C)C1CN(C(=O)OCc2ccccc2)C2N1C(=O)C2(C)OCc1ccccc1 (stereo not drawn)	–	> 100	–	–	–	> 100	–	29.5	–	–	–	–	–	96.9	–	> 100	–	–	–	> 100
CCC(C)(C)n1c(C)nc2c1C(=O)c1ccccc1C2=O	–	> 100	–	–	–	> 100	–	33.7	–	87.5	–	–	–	84.4	–	> 100	–	–	–	86.7
O=S(=O)(OI(OI(OS(=O)(=O)C(F)(F)F)c1ccccc1)c1ccccc1)C(F)(F)F	–	> 100	–	> 100	–	> 100	–	85.4	–	> 100	–	–	–	–	–	> 100	–	–	–	> 100
Cc1cc(C)nc(NS(=O)(=O)c2ccc(Nc3c4ccccc4nc4c(C(=O)N5CCN(CCO)CC5)cccc34)cc2)n1	–	> 100	–	> 100	–	> 100	–	> 100	–	–	–	–	–	> 100	–	> 100	–	–	–	> 100
COC(=O)c1c2c(c(C)[n+]([O-])c1C)C(=O)C(NCc1ccc(Br)cc1)=CC2=O	2.38	> 100	–	–	–	–	867	2.11	–	–	1410	5.51	–	–	–	–	2640	9.94	243	0.8
CN(C)CCNC(=O)Cc1ccccc1Nc1c(Cl)cccc1Cl	–	37.5	–	–	–	34.5	–	30.2	–	–	–	–	–	29.1	–	33.3	–	–	–	–
O=C1C/C(Br)=C\c2ccccc2-c2ccccc21	–	9.65	–	5.86	–	2.98	–	16	–	1.59	–	–	–	14.5	–	4.5	–	–	–	4.94
O=C1c2cccc3cccc(c23)C(=O)N1CCN(CCO)CCO	–	90.6	–	–	–	46	–	33.6	–	–	–	–	–	54	–	67.5	–	–	–	46.3
Nc1c(S(=O)(=O)c2ccc(Cl)cc2)c2nc3ccccc3nc2n2ccnc12	–	> 100	–	–	–	–	–	> 100	–	> 100	–	–	–	> 100	–	> 100	–	–	–	> 100

— PubChem BioAssay (NCI)
